Read-outs that look alike come from different tables or passages of the source. Each block holds one molecule with its values, some of them ahead of it.
Columns and labels:
Y2R = tested on: Y2R; design: method as in earlier work; conditions: ref Swanson, D.M. et al., Bioorg. Med. Chem. Lett. 21:5552-5556, 2011; read-out: Y2R affinity IC50; cited from earlier work
Y2R mutant Q130^3.32H = target: T1, Y2R mutant Q130^3.32H (Homo sapiens, UniProt P49146, Q130H); test: NPY-induced IP accumulation (IP-One), mutant; format: cell-based; conditions: 1 μM antagonist
T1 construct: expressed in transfected cells; host or cells: HEK293
Description: The plasmid hY2R_eYFP_pVitro2 encoding the WT Y2R and a fluorophore for investigating the receptor localization was used as template for the generation of receptor point mutations as previously described. Mutagenesis PCR was performed using the Phusion High-Fidelity Polymerase (Thermo Fisher Scientific, Waltham, MA, USA). […] The preparations of the plasmid DNA were performed using the Wizard plus Mini or Midi DNA purification kit (Promega, Madison, WI, USA).
(§1) To determine the contribution of residues to antagonist binding, IP-One accumulation assays (Cisbio, Codolet, France) were performed. HEK293 cells were seeded into six-well plates and transiently cotransfected with 3200 ng of receptor plasmid DNA and 800 ng of the chimeric G protein (Gα∆6qi4myr) to redirect the Gαi signaling pathway to the Gαq phospholipase C pathway. Transient transfection was carried out using Metafectene as transfection reagent according to the manufacturer’s protocol (Biontex, Munich, Germany) over night. The cells were then reseeded into white 384-well microplates (Greiner Bio-One, Kremsmünster, Austria) at a density of 15,000 cells per well and grown for additional 24 h.
All dilutions were performed in HBSS containing 20 mM LiCl (stimulation buffer) and DMSO with a final concentration of 0.01%.
To determine the amount of cellular IPs, the FRET acceptor (IP1-d2) and the FRET donor (anti-IP1-Cryptate) were reconstituted and diluted in lysis and detection buffer (1:20) as described in the manufacturer’s protocol. Three microliters of both solutions were added, and the cells were incubated on a tumbler for 60 min.

wild-type Y2R [1] = target: T2, wild-type Y2R (Homo sapiens, UniProt P49146); test: Dose-dependent inhibition of NPY (0.3 nM)-induced IP accumulation; format: cell-based; conditions: read-out: pIC50 ± SEM, inhibition of NPY-induced IP accumulation (converted)
T2 construct: expressed in transfected cells; host or cells: HEK293
T2 sequence (P49146 1-381): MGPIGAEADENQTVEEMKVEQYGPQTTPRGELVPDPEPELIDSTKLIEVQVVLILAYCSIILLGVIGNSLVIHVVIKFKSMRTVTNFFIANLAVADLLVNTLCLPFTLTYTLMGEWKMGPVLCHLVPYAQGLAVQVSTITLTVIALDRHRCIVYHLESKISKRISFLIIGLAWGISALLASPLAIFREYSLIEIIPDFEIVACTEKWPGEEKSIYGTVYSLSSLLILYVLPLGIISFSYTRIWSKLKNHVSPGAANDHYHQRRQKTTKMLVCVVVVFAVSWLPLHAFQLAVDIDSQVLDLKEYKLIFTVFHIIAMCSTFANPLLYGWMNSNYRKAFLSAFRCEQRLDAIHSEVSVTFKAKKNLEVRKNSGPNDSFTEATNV
Description: To determine the contribution of residues to antagonist binding, IP-One accumulation assays (Cisbio, Codolet, France) were performed. […] The cells were then reseeded into white 384-well microplates (Greiner Bio-One, Kremsmünster, Austria) at a density of 15,000 cells per well and grown for additional 24 h. […] Three microliters of both solutions were added, and the cells were incubated on a tumbler for 60 min.

[2] = target: T3, Y2R crystallization construct without flavodoxin in ICL3 (construct_no flavodoxin) (Homo sapiens, UniProt P49146, H149Y/S280C); test: as above; format: cell-based; conditions: read-out: pIC50 ± SEM, inhibition of NPY-induced IP accumulation (converted)
T3 construct: expressed in transfected cells; host or cells: HEK293
Description: as §1, with “([…])” for “(Gα∆6qi4myr)”, “manufacturer's” for “manufacturer’s”, “h. […] The cells were stimulated at 37 °C and 5% CO2 in humidified atmosphere for 90 min. The exact value of the effective concentration (ECx) at the day of the assay was determined by control curves in the absence of antagonist. To determine the amount of cellular IPs, the FRET acceptor (IP1-d2) and the FRET donor (anti-IP1-Cryptate) were reconstituted and diluted in lysis and detection buffer (1:20) as described in the manufacturer's protocol. Three microliters of both solutions were added, and the cells were incubated on a tumbler for 60 min.” for “h.”

[3] = target: T4, modified Y2R used for crystallization without N-terminal T4L (Construct_no T4L) (Homo sapiens, UniProt P49146, DEL251-256/H149Y/S280C); test: NanoBRET-based binding assay (K18(TAMRA)-NPY); conditions: 300 nM K18(TAMRA)-NPY
T4 construct: eYFP (from the vector name) (C); expressed in transfected cells; host or cells: HEK293 (membrane preparations)
Description: (§2) For this purpose, a Nanoluciferase[44] (Promega, Madison, WO, USA) followed by a flexible […] terminus of the receptor in an Y2-eYFP_N1 vector[45]. The Nanoluciferase replaced the similarly sized N-terminal T4L fusion in the crystallization construct. To facilitate correct expression of this large N-terminal domain and export to the plasma membrane, a signal sequence of human interleukin 6 ([…]) was used[44]. HEK293 cells were transiently transfected with 8 μg of the corresponding vectors per T75 flask using MetafectenePro (Biontex) following the manufacturer's instructions. Twenty-four hours post transfection, the cells were harvested in PBS (-Ca^2+; -Mg^2+) and frozen (-80 °C). The membranes were prepared as described previously. Briefly, the cells were lysed in a hypotonic TRIS buffer (50 mM Tris-HCl, pH 7.5 and 50 μM Pefabloc SC) and homogenized using a manual dounce homogenizer for 15 times. Nuclei and cell debris was removed by centrifugation at 820 × g for 10 min (4 °C), and the microsomal membranes in the supernatant were collected by centrifugation at 20,000 × g for 60 min (4 °C). […] The total protein amount was determined by a Bradford assay. The membrane preparations were stored in aliquots at -80 °C. […] Directly before the measurement, 10 μl coelenterazine H in HBSS/HEPES was added to a final concentration of 4 μM. […] The BRET ratio was calculated by the ratio of F/L, and corrected by the background values. The IC50 values were determined using a three-parameter logistic fit in the GraphPad Prism 5 software (GraphPad Software, San Diego, CA, USA).

wild-type Y2R [4] = target: T2, wild-type Y2R; test: NanoBRET-based binding assay (K18(TAMRA)-NPY); conditions: read-out: pIC50 ± SEM, NanoBRET binding (converted)
Description: as §2

NPY receptors = conditions: cited from earlier work
[5] = target: Y2R mutant Q130^3.32H (hY2R_eYFP_pVitro2) (human) (UniProt P49146)
[6] = target: Y2R mutant D292^6.59N (hY2R_eYFP_pVitro2) (human) (UniProt P49146)
[7] = target: Y2R mutant Y110^2.64A (hY2R_eYFP_pVitro2) (human) (UniProt P49146)
[8] = target: wild-type human Y2R with C-terminal eYFP (hY2R_eYFP_pVitro2) (human) (UniProt P49146)

T4 sequence (P49146 with tags, fused parts or gaps H149Y/DEL251-256/S280C): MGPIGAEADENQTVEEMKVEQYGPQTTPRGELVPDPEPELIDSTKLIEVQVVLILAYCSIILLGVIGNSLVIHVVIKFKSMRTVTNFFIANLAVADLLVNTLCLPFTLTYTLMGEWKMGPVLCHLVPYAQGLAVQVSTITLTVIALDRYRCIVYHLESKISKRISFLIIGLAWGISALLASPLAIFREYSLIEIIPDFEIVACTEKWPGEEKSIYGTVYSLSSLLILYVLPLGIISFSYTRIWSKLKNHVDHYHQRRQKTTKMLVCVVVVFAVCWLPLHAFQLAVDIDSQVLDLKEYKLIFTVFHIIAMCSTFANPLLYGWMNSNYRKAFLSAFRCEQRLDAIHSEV
T3 sequence (P49146 1-353 H149Y/S280C): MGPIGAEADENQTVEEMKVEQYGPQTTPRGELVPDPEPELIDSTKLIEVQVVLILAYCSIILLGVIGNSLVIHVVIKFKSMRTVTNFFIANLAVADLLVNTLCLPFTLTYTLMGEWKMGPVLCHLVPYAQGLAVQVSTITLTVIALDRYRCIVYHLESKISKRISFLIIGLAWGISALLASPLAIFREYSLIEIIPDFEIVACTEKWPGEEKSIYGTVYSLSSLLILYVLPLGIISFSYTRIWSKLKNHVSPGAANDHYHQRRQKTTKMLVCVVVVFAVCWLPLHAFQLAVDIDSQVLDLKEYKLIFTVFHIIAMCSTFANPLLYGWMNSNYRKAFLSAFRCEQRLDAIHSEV
T1 sequence (P49146 whole entry Q130H): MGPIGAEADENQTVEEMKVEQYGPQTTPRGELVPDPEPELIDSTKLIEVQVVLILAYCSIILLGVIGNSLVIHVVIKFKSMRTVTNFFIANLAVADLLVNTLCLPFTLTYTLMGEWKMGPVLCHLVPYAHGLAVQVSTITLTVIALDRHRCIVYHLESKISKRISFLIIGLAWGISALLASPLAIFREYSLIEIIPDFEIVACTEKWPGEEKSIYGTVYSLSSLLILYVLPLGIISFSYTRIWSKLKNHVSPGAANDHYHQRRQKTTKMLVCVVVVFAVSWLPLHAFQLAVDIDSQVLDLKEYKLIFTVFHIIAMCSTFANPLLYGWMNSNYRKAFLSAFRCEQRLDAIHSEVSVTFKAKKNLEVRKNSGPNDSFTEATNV

Molecule: CCN(CC)C(=O)C(c1ccccc1)N1CCN(c2ccc(NC(=O)c3ccccc3-c3cccnc3)cc2F)CC1 (single isomer, unassigned) [R-isomer]
- IC50 (Y2R): 9 ± 2 nM

Molecule: CCN(CC)C(=O)C(c1ccccc1)N1CCN(c2ccc(NC(=O)c3ccccc3-c3cccnc3)cc2F)CC1 (single isomer, unassigned) [S-isomer]
- IC50 (Y2R): 14 ± 3 nM

- Antagonistic activity compared to WT (in words) (Y2R mutant Q130^3.32H): increased antagonistic activity
- IC50 (wild-type Y2R [1]): 47.9 nM
- IC50 [2]: 60.3 nM
- IC50 ([3]; read-out: IC50, NanoBRET binding): 0.7 nM
- IC50 ([3]; read-out: pIC50 ± SEM, NanoBRET binding (converted)): 0.676 nM
- IC50 (wild-type Y2R [4]): 1.29 nM
Molecule: CCN(CC)C(=O)C(c1ccccc1)N1CCN(c2ccc(NC(=O)c3ccccc3-c3cccnc3)cc2F)CC1 (stereo not shown) [JNJ-31020028, N-(4-{4-[2-(diethylamino)-2-oxo-1-phenylethyl]piperazin-1-yl}-3-fluorophenyl)-2-pyridin-3-ylbenzamide]
- Higher binding affinity to Y2R over the other NPY receptors (NPY receptors): over 100 fold

- fold change of the EC50 of NPY-induced receptor signaling (IP accumulation) against the wild-type Y2R [5]: 132 fold
- fold change of the EC50 of NPY in triggering Y2R signaling (IP accumulation) against the wild-type Y2R [6]: 233 fold
- EC50 of NPY-induced IP accumulation (IP-One assay, HEK293 cells with chimeric G protein) [7]: 1.8 nM
- EC50 of NPY-induced IP accumulation (IP-One assay, HEK293 cells with chimeric G protein) [8]: 0.06 nM
Molecule: neuropeptide Y (NPY) (from UniProt P01303 29-64)
